{
  "source": "paper PMC5306220",
  "about": "(European Journal of Clinical Pharmacology, 2016)",
  "key": {"[1]": {"assay": "Population PK/PD model fitted to study data: PK parameter estimates", "assay_type": "in vivo, human", "settings": "PK/PD model typical value", "from_the_text": "To bridge the adult and pediatric PK, the PK model included weight as an initial covariate on clearance and volume of distribution parameters, as shown in the following equation: Pi=Ppop⋅WTi/WTreference^b⋅e^ηi"}, "blood pressure": {"tested_on": "blood pressure", "settings": "patients with T2DM; cited from earlier work"}, "[2]": {"assay": "Safety: treatment-emergent adverse events, laboratory tests, vital signs, ECG;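 also: dosing after fasting overnight (8 h minimum), clinic stay to day 2, outpatient visits on days 3 and 4, and a telephone check for adverse events about 14 days after study exit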"}, "[3]": {"assay": "Plasma and urine pharmacokinetics of alogliptin after a single oral dose (LC-MS/MS, noncompartmental)"}, "[4]": {"settings": "12.5 mg single dose, Group 1 10 to <14 years, N = 5"}, "[5]": {"settings": "12.5 mg single dose, Group 2 14 to <18 years, N = 8"}, "[6]": {"settings": "25 mg single dose, Group 1 10 to <14 years, N = 4"}, "[7]": {"settings": "25 mg single dose, Group 2 14 to <18 years, N = 7"}, "[8]": {"settings": "25 mg single dose, Group 3 Adults, N = 22"}, "[9]": {"settings": "entire study period, all 46 subjects"}, "[10]": {"settings": "pediatric subjects, 12.5-mg dose vs adults 25 mg"}},
  "data": [
    {"molecule": "Cn1c(=O)cc(N2CCC[C@@H](N)C2)n(Cc2ccccc2C#N)c1=O", "note": "[alogliptin]", "values": [
      {"measurement": "Absorption rate constant [KA] in adult subjects", "setting": "[1]; adult subjects", "result": 1.66, "unit": "h⁻¹"},
      {"measurement": "Oral clearance [CL/F] in adult subjects", "setting": "[1]; adult subjects, reference body weight 70 kg", "result": 13.0, "unit": "L/h"},
      {"measurement": "Absorption rate constant [KA] in pediatric subjects", "setting": "[1]; pediatric subjects", "result": 0.590, "unit": "h⁻¹"},
      {"measurement": "Oral clearance [CL/F] in pediatric subjects", "setting": "[1]; pediatric subjects, reference body weight 70 kg", "result": 14.4, "unit": "L/h"},
      {"measurement": "Vd/F", "setting": "[1]; human, plasma, oral, read-out: Central volume of distribution [V2/F]", "result": 125, "unit": "L"},
      {"measurement": "effect on blood pressure", "setting": "blood pressure", "result": "lower blood pressure"},
      {"measurement": "Mild TEAEs: Subjects, N (%)", "setting": "[2]; [4]", "result": "3 (60.0)"},
      {"measurement": "Moderate TEAEs: Subjects, N (%)", "setting": "[2]; [4]", "result": 0},
      {"measurement": "Not related TEAEs: Subjects, N (%)", "setting": "[2]; [4]", "result": "1 (20.0)"},
      {"measurement": "Related TEAEs: Subjects, N (%)", "setting": "[2]; [4]", "result": "2 (40.0)"},
      {"measurement": "Severe TEAEs: Subjects, N (%)", "setting": "[2]; [4]", "result": 0},
      {"measurement": "TEAEs: Subjects, N (%)", "setting": "[2]; [4]", "result": "3 (60.0)"},
      {"measurement": "Mild TEAEs: Subjects, N (%)", "setting": "[2]; [5]", "result": "5 (62.5)"},
      {"measurement": "Moderate TEAEs: Subjects, N (%)", "setting": "[2]; [5]", "result": 0},
      {"measurement": "Not related TEAEs: Subjects, N (%)", "setting": "[2]; [5]", "result": "3 (37.5)"},
      {"measurement": "Related TEAEs: Subjects, N (%)", "setting": "[2]; [5]", "result": "2 (25.0)"},
      {"measurement": "Severe TEAEs: Subjects, N (%)", "setting": "[2]; [5]", "result": 0},
      {"measurement": "TEAEs: Subjects, N (%)", "setting": "[2]; [5]", "result": "5 (62.5)"},
      {"measurement": "Mild TEAEs: Subjects, N (%)", "setting": "[2]; [6]", "result": "1 (25.0)"},
      {"measurement": "Moderate TEAEs: Subjects, N (%)", "setting": "[2]; [6]", "result": 0},
      {"measurement": "Not related TEAEs: Subjects, N (%)", "setting": "[2]; [6]", "result": "1 (25.0)"},
      {"measurement": "Related TEAEs: Subjects, N (%)", "setting": "[2]; [6]", "result": 0},
      {"measurement": "Severe TEAEs: Subjects, N (%)", "setting": "[2]; [6]", "result": 0},
      {"measurement": "TEAEs: Subjects, N (%)", "setting": "[2]; [6]", "result": "1 (25.0)"},
      {"measurement": "Mild TEAEs: Subjects, N (%)", "setting": "[2]; [7]", "result": "2 (28.6)"},
      {"measurement": "Moderate TEAEs: Subjects, N (%)", "setting": "[2]; [7]", "result": 0},
      {"measurement": "Not related TEAEs: Subjects, N (%)", "setting": "[2]; [7]", "result": "2 (28.6)"},
      {"measurement": "Related TEAEs: Subjects, N (%)", "setting": "[2]; [7]", "result": 0},
      {"measurement": "Severe TEAEs: Subjects, N (%)", "setting": "[2]; [7]", "result": 0},
      {"measurement": "TEAEs: Subjects, N (%)", "setting": "[2]; [7]", "result": "2 (28.6)"},
      {"measurement": "Mild TEAEs: Subjects, N (%)", "setting": "[2]; [8]", "result": "7 (31.8)"},
      {"measurement": "Moderate TEAEs: Subjects, N (%)", "setting": "[2]; [8]", "result": "1 (4.5)"},
      {"measurement": "Not related TEAEs: Subjects, N (%)", "setting": "[2]; [8]", "result": "4 (18.2)"},
      {"measurement": "Related TEAEs: Subjects, N (%)", "setting": "[2]; [8]", "result": "5 (22.7)"},
      {"measurement": "Severe TEAEs: Subjects, N (%)", "setting": "[2]; [8]", "result": "1 (4.5)"},
      {"measurement": "TEAEs: Subjects, N (%)", "setting": "[2]; [8]", "result": "9 (40.9)"},
      {"measurement": "AEs leading to study drug discontinuation", "setting": "[2]; entire study", "result": "No AEs led to study drug discontinuation"},
      {"measurement": "abnormal ECG results reported as TEAE", "setting": "[2]; entire study", "result": "No abnormal ECG result was reported as a TEAE"},
      {"measurement": "deaths", "setting": "[2]; entire study", "result": "no deaths occurred"},
      {"measurement": "number of TEAEs", "setting": "[2]; [9]", "result": 36},
      {"measurement": "subjects who experienced TEAEs", "setting": "[2]; [9]", "result": 20},
      {"measurement": "tolerability", "setting": "[2]; single doses 12.5 and 25 mg, pediatric and adult subjects", "result": "well tolerated"},
      {"measurement": "mean CL/F higher in all pediatric subjects compared with adult subjects", "setting": "[3]; groups 1 and 2 vs adults", "result": "up to 37%"},
      {"measurement": "Tmax", "setting": "[3]; human, plasma, po", "result": "2 to 4", "unit": "h"},
      {"measurement": "correlation between dose-normalized AUC0-inf and creatinine clearance", "setting": "[3]; pediatric and adult subjects", "result": "no correlations were observed"},
      {"measurement": "mean AUC0-inf lower than in adults", "setting": "[3]; [10]", "result": 54, "unit": "%"},
      {"measurement": "mean Cmax lower than in adults", "setting": "[3]; [10]", "result": 58, "unit": "%"},
      {"measurement": "mean AUC0-inf lower than in adults receiving the 25-mg dose", "setting": "[3]; pediatric subjects, 25-mg dose", "result": 23, "unit": "%"},
      {"measurement": "mean Cmax lower than in adults receiving the 25-mg dose", "setting": "[3]; pediatric subjects, 25-mg dose", "result": 26, "unit": "%"}
    ]}
  ]
}
